Assay results as given in the supplement of paper PMC4862054.

Columns and labels:
Conditions in all cases: incubation time: 72 h
[1] = test system: HDQ-P1; experiment: normalised response (% of control), CellTiter-Glo; higher = more viable cells (100 = DMSO, 0 = benzethonium chloride kill control)
Summary of the method: (§1)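 Breast cancer cell lines were exposed for 72 h in 384-well plates to compound at 5 concentrations, 10-fold apart, covering a 10,000-fold range fixed for each compound. Plates were read for CellTox Green fluorescence and CellTiter-Glo luminescence and normalised to 0.1 % DMSO (100) and a positive kill control (0). Each value is the normalised signal at one concentration of the series.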

[2] = test system: MFM-223; experiment: as above
Summary of the method: as §1

[3] = test system: DU-4475; experiment: as above
Summary of the method: as §1

[4] = test system: SK-BR-3; experiment: as above
Summary of the method: as §1

[5] = test system: CAL-85-1; experiment: as above
Summary of the method: as §1

[6] = test system: CAL-120; experiment: as above
Summary of the method: as §1

[7] = test system: Hs578T; experiment: as above
Summary of the method: as §1

[8] = test system: BT-549; experiment: as above
Summary of the method: as §1

[9] = test system: MDA-MB-453; experiment: as above
Summary of the method: as §1

[10] = test system: HCC1143; experiment: as above
Summary of the method: as §1

[11] = test system: MDA-MB-468; experiment: as above
Summary of the method: as §1

[12] = test system: HCC1937; experiment: as above
Summary of the method: as §1

[13] = test system: CAL-148; experiment: as above
Summary of the method: as §1

[14] = test system: MCF-10A; experiment: as above
Summary of the method: as §1

[15] = test system: MDA-MB-436; experiment: as above
Summary of the method: as §1

[16] = test system: MDA-MB-231; experiment: as above
Summary of the method: as §1

[17] = test system: CAL-51; experiment: as above
Summary of the method: as §1

[18] = test system: BT-474; experiment: as above
Summary of the method: as §1

[19] = test system: HCC1599; experiment: as above
Summary of the method: as §1

[20] = test system: HDQ-P1; experiment: normalised response (% of control), CellTox Green; higher = less cell death (100 = DMSO, 0 = benzethonium chloride kill control)
Summary of the method: as §1

[21] = test system: MFM-223; experiment: as above
Summary of the method: as §1

[22] = test system: DU-4475; experiment: as above
Summary of the method: as §1

[23] = test system: CAL-85-1; experiment: as above
Summary of the method: as §1

[24] = test system: CAL-120; experiment: as above
Summary of the method: as §1

[25] = test system: Hs578T; experiment: as above
Summary of the method: as §1

[26] = test system: BT-549; experiment: as above
Summary of the method: as §1

[27] = test system: MDA-MB-453; experiment: as above
Summary of the method: as §1

[28] = test system: HCC1143; experiment: as above
Summary of the method: as §1

[29] = test system: MDA-MB-468; experiment: as above
Summary of the method: as §1

[30] = test system: HCC1937; experiment: as above
Summary of the method: as §1

[31] = test system: CAL-148; experiment: as above
Summary of the method: as §1

[32] = test system: MCF-10A; experiment: as above
Summary of the method: as §1

[33] = test system: MDA-MB-436; experiment: as above
Summary of the method: as §1

[34] = test system: CAL-51; experiment: as above
Summary of the method: as §1

[35] = test system: BT-474; experiment: as above
Summary of the method: as §1

[36] = test system: HCC1599; experiment: as above
Summary of the method: as §1

[37] = test system: MDA-MB-231; experiment: as above
Summary of the method: as §1

SMILES	normalised response [1] [%]	normalised response [2] [%]	normalised response [3] [%]	normalised response [4] [%]	normalised response [5] [%]	normalised response [6] [%]	normalised response [7] [%]	normalised response [8] [%]	normalised response [9] [%]	normalised response [10] [%]	normalised response [11] [%]	normalised response [12] [%]	normalised response [13] [%]	normalised response [14] [%]	normalised response [15] [%]	normalised response [16] [%]	normalised response [17] [%]	normalised response [18] [%]	normalised response [19] [%]	normalised response [20] [%]	normalised response [21] [%]	normalised response [22] [%]	normalised response [23] [%]	normalised response [24] [%]	normalised response [25] [%]	normalised response [26] [%]	normalised response [27] [%]	normalised response [28] [%]	normalised response [29] [%]	normalised response [30] [%]	normalised response [31] [%]	normalised response [32] [%]	normalised response [33] [%]	normalised response [34] [%]	normalised response [35] [%]	normalised response [36] [%]	normalised response [37] [%]
CO[C@@H](C(=O)N1Cc2[nH]nc(NC(=O)c3ccc(N4CCN(C)CC4)cc3)c2C1)c1ccccc1 [Danusertib] (100 nM)	96.4	67.1	100	82.5	95.5	89	97	92.7	133	91.4	50.5	96.8	57.7	84.6	101	94.8	82.5	98.6	105	109	104	97.1	86.5	97.5	98.2	101	97.7	111	69.6	93.8	69.4	108	98.2	62.2	99	102	–
Nc1cccc2c1CN(C1CCC(=O)NC1=O)C2=O (stereo not drawn) [Lenalidomide] (100 nM)	102	103	104	98.4	100	93.3	101	103	103	99.1	111	95.3	105	99.3	93.2	94.3	69.2	103	111	100	107	101	101	97.4	109	99.6	100	92.4	102	–	104	77.9	107	76.4	101	107	105
Nc1ccccc1NC(=O)c1ccc(CNc2nccc(-c3cccnc3)n2)cc1 [Mocetinostat] (100 nM)	88.7	92.6	107	115	93.3	102	93.2	106	99.4	102	90.6	86.1	99	157	90.7	97.5	78.3	91.5	97.2	104	97.5	99.1	97.4	93.3	112	99.1	98.1	101	104	–	–	93.1	96.4	82	99.1	95.8	89.2
Cc1ccc(Nc2nccc(N(C)c3ccc4c(C)n(C)nc4c3)n2)cc1S(N)(=O)=O [Pazopanib] (100 nM)	101	103	100	100	104	95.9	103	102	108	105	104	99	112	97.3	103	98.7	96.7	107	103	109	104	101	103	95	107	98.1	97.4	98	–	66.2	96	72.7	94.2	104	96.2	112	100
